Measurements reported in US10350302B2, “Thymidine kinase diagnostic assay for gene therapy applications” (GenVivo, Inc., priority 2013, dated 2019).

How the values were obtained:
[1] = system: cells containing HSV-TK-m2; settings: published observations; cited from earlier work
[2] = [18F]FHBG whole body biodistribution by PET (FIG. 2); type: in vivo, human
Excerpt: FIG. 2 is whole body coronal images of [^18F]FHBG biodistribution in a healthy human subject at four distinct time periods after 4.53 mCi i.v. injection of the [^18F]FHBG.
In some embodiments, the clearance pattern in a subject determines the length of time delay for measuring background and determining, for example, [^18F]FHBG imaging activity. […] Accordingly, depending upon the organ and subject individual, some time may be required for background levels to decrease in order to measure HSV-TK gene expression. […] In these organ systems, a sufficient threshold for gene therapy suitability may be, for example, at least above 1.0 SUV, at least above 1.5 SUV, at least above 2.0 SUV, at least above 2.5 SUV, at least above 3.0 SUV, at least above 3.5 SUV or at least above 4.0 SUV.
In contrast, some delay may be needed in order to image signals above background levels in, for example, the liver and kidneys. See Yaghoubi et al. Nat. Protocols at vol. 1, p. 3073. Because of the background signals in these organ systems, a sufficient threshold for determination of suitability for gene therapy treatment may be, for example, at least 10% above background, at least 15% above background, at least 20% above background, at least 25% above background, at least 30% above background, at least 35% above background, at least 40% above background, at least 45% above background, at least 50% above background, at least 55% above background, at least 60% above background, at least 65% above background, at least 70% above background, at least 75% above background, at least 80% above background, at least 85% above background, at least 90% above background, at least 95% above background or at least 100% or more above background when measured after a predetermined amount of time. […] Accordingly, [^18F]FHBG signal measurements in the liver should not be taken until after [^18F]FHBG signal levels have decreased to background, approximately 1 to 1½ hours, depending upon clearance rate in each individual subject.

[3] = system: HSV-TK enzyme; settings: cited from earlier work
[4] = system: mammalian TK enzymes; settings: cited from earlier work
[5] = system: cancer cells; experiment: GCV mediated cancer cell kill assay after retroviral transduction; type: cell-based; settings: following retroviral transduction delivery
Excerpt: […]

[6] = healthy human subject, 45.3 minutes to 80.3 minutes
[7] = healthy human subject, 83.3 minutes to 155.6 minutes

## Nc1nc(O)c2ncn(COC(CO)CO)c2n1 [ganciclovir]
[1]
  duration of ganciclovir sufficient to kill the majority of cells containing HSV-TK-m2: 5 days

## Nc1nc2c(ncn2CCC(CO)C[18F])c(=O)[nH]1 (stereo not drawn) [[^18F]FHBG, 9-[4-[^18F]Fluoro-3-(hydroxymethyl)butyl]guanine]
[2]; healthy human subject, 4.53 mCi i.v., after administration
  background [18F]FHBG signal in the heart and lungs: virtually no background
[2]; healthy human subject, 4.53 mCi i.v., between 7.6 and 42.6 minutes after administration
  [18F]FHBG levels in the liver, kidneys and bladder: high
[2]; [6]
  [18F]FHBG levels in the liver and kidneys: decreased significantly
  [18F]FHBG signal in the bladder: persistent high signal
[2]; [7]
  [18F]FHBG levels in the liver and kidneys: decreased even further
  [18F]FHBG signal in the bladder: maintenance of high signal levels
[2]; humans
  [18F]FHBG background in most tissues outside the lower abdomen: rapidly decreases
[3]
  affinity as substrate for HSV-TK enzyme: high affinity substrate
[4]
  affinity for mammalian TK enzymes: relative low affinity

B1: SEQ ID NO: 18: optimized HSV-TK polynucleotide: A168H, nuclear export sequence, double mutated NLS, codon optimized, splice corrected (nucleic acid)
DNA: GTCAGCGGCCGCACCGGTACGCGTCCACCATGGCCCTGCAGAAAAAGCTGGAAGAGCTGGAACTGGATGGCAGCTACCCCGGCCACCAGCACGCCAGCGCCTTCGACCAGGCCGCCCGCAGCCGCGGCCACAGCAACGGCAGCACCGCACTGCGGCCAGGATCTCAGCAGGAGGCCACCGAGGTGCGCCCCGAGCAGAAGATGCCCACCCTGCTGCGCGTGTACATCGACGGACCACACGGCATGGGCAAGACCACCACCACCCAGCTGCTGGTGGCCCTGGGCAGCCGCGACGACATCGTGTACGTGCCCGAGCCCATGACCTACTGGCGCGTGCTGGGCGCCAGCGAGACCATCGCCAACATCTACACCACCCAGCACCGCCTGGACCAAGGCGAGATCAGCGCCGGCGACGCCGCCGTGGTGATGACCAGCGCCCAGATTACAATGGGCATGCCCTACGCCGTGACCGACGCCGTGCTGGCACCACACATCGGCGGCGAGGCCGGCAGCAGCCACGCACCACCACCAGCACTGACCCTGATCTTCGACCGGCACCCAATCGCACACCTGCTGTGCTACCCGGCAGCACGCTACCTGATGGGCTCCATGACACCACAAGCCGTGCTGGCCTTCGTGGCCCTGATCCCACCAACACTGCCCGGCACCAACATCGTGCTGGGCGCCCTGCCCGAGGACCGCCACATCGACCGCCTGGCCAAGCGCCAGCGCCCCGGCGAGCGCCTGGACCTGGCCATGCTGGCCGCCATCCGCCGCGTGTACGGCCTGCTGGCCAACACCGTGCGCTACCTGCAGTGCGGCGGCAGCTGGCGCGAGGACTGGGGCCAGCTGAGCGGCACCGCCGTGCCACCACAGGGCGCCGAGCCACAGAGCAACGCCGGACCACGACCACACATCGGCGACACCCTGTTCACCCTGTTCCGGGCACCAGAGCTGCTGGCACCAAACGGCGACCTGTACAACGTGTTCGCCTGGGCCCTGGACGTGCTGGCCAAGCGCCTGCGCTCCATGCACGTGTTCATCCTGGACTACGACCAGTCACCGGCCGGCTGCCGCGACGCCCTGCTGCAGCTGACCAGCGGCATGGTGCAGACCCACGTGACAACACCCGGCAGCATCCCAACAATCTGCGACCTGGCCCGCACCTTCGCCCGCGAGATGGGCGAGGCCAACTAATAGGGATCCCTCGAGAAGCTTGTCA
[5]
  pro-drug GCV enzyme activity and selectivity for ability to kill cancer cells: exhibited pro-drug GCV enzyme activity and selectivity

B2: HSV-TK gene A168H and mutated at amino acids 159-161 from LIF to IFL: HSV-TK gene A168H also mutated at amino acids 159-161 from LIF to IFL (nucleic acid)
DNA: GTCAGCGGCCGCACCGGTACGCGTCCACCATGGCCAGCTACCCCGGCCACCAGCACGCCAGCGCCTTCGACCAGGCCGCCCGCAGCCGCGGCCACAGCAACGGCAGCACCGCACTGCGGCCACGGCGCCAGCAGGAGGCCACCGAGGTGCGCCCCGAGCAGAAGATGCCCACCCTGCTGCGCGTGTACATCGACGGACCACACGGCATGGGCAAGACCACCACCACCCAGCTGCTGGTGGCCCTGGGCAGCCGCGACGACATCGTGTACGTGCCCGAGCCCATGACCTACTGGCGCGTGCTGGGCGCCAGCGAGACCATCGCCAACATCTACACCACCCAGCACCGCCTGGACCAAGGCGAGATCAGCGCCGGCGACGCCGCCGTGGTGATGACCAGCGCCCAGATTACAATGGGCATGCCCTACGCCGTGACCGACGCCGTGCTGGCACCACACATCGGCGGCGAGGCCGGCAGCAGCCACGCACCACCACCAGCACTGACCATCTTCCTGGACCGGCACCCAATCGCACACCTGCTGTGCTACCCGGCAGCACGCTACCTGATGGGCTCCATGACACCACAAGCCGTGCTGGCCTTCGTGGCCCTGATCCCACCAACACTGCCCGGCACCAACATCGTGCTGGGCGCCCTGCCCGAGGACCGCCACATCGACCGCCTGGCCAAGCGCCAGCGCCCCGGCGAGCGCCTGGACCTGGCCATGCTGGCCGCCATCCGCCGCGTGTACGGCCTGCTGGCCAACACCGTGCGCTACCTGCAGTGCGGCGGCAGCTGGCGCGAGGACTGGGGCCAGCTGAGCGGCACCGCCGTGCCACCACAGGGCGCCGAGCCACAGAGCAACGCCGGACCACGACCACACATCGGCGACACCCTGTTCACCCTGTTCCGGGCACCAGAGCTGCTGGCACCAAACGGCGACCTGTACAACGTGTTCGCCTGGGCCCTGGACGTGCTGGCCAAGCGCCTGCGCTCCATGCACGTGTTCATCCTGGACTACGACCAGTCACCGGCCGGCTGCCGCGACGCCCTGCTGCAGCTGACCAGCGGCATGGTGCAGACCCACGTGACAACACCCGGCAGCATCCCAACAATCTGCGACCTGGCCCGCACCTTCGCCCGCGAGATGGGCGAGGCCAACTAATAGGGATCCCTCGAGAAGCTTGTCA
[5]; ganciclovir (GCV) pro-drug
  GCV mediated cancer kill activity: exhibited GCV mediated cancer cell kill activity
